What was measured:
[1] = tested on: Rhopalosiphum padi; assay: 4-way olfactometer, direct response to chemical odour; assay type: in vivo; conditions: R. padi; visits to treatment arm vs control arms
Description: (§1) Responses of R. padi migrants to chemical odours were tested in a 4-way olfactometer (Pettersson, 1970), consisting of an enclosed Perspex arena (12 cm diameter) with a central chamber and four side arms. Air was drawn from the centre of the olfactometer using a water pump, establishing distinct airflow in the side arms. An odour field was established by introducing a chemical (released from a […] capillary tube, or a whole menthol crystal, weight: 0.14 g) into one of the side arms. A single adult apterous aphid was introduced into the olfactometer, and its position was recorded every 3 minutes for 30 minutes. The number of visits to the treatment arm was compared with the mean number of visits to the control arms using a paired t-test. Experiments were repeated 16-20 times (no. individual aphids tested), with the olfactometer turned through 90° between replicates to avoid positional bias. Olfactory responses to plants exposed to chemicals were done in a similar way, except that the odour sources consisted of whole plants enclosed in two-chamber cages attached directly to the olfactometer. In each olfactometer, one treated plant was compared with one untreated plant.

[2] = tested on: Aphis fabae; assay: as above; assay type: in vivo; conditions: FIG. 1
[3] = tested on: Cavariella aegopodi; assay: as above; assay type: in vivo; conditions: FIG. 1
[4] = tested on: Rhopalosiphum padi; assay: Olfactometer response to odour of barley plants exposed to chemicals; assay type: in vivo; conditions: treated plant vs untreated plant
Excerpt: Exposure of barley plants to volatile chemicals was done in perspex ‘two-chamber cages’ (Pettersson et al. 1999) attached to a vacuum tank. Air was taken into the first chamber through a hole in the cage wall, passed into the second chamber and was then drawn out from the top of this cage to a vacuum tank before being vented outside the room. Plants were placed in the second chamber, and chemicals were released from microcapillary tubing which hung in the first chamber. Plants were exposed for 5 days, after which time they were removed and used in tests of aphid behaviour. Control plants grew in identical cages with empty microcapillary tubes. Responses of R. padi migrants to chemical odours were tested in a 4-way olfactometer (Pettersson, 1970), consisting of an enclosed Perspex arena (12 cm diameter) with a central chamber and four side arms. Air was drawn from the centre of the olfactometer using a water pump, establishing distinct airflow in the side arms. An odour field was established by introducing a chemical (released from a […] capillary tube, or a whole menthol crystal, weight: 0.14 g) into one of the side arms. A single adult apterous aphid was introduced into the olfactometer, and its position was recorded every 3 minutes for 30 minutes. The number of visits to the treatment arm was compared with the mean number of visits to the control arms using a paired t-test. […]

[5] = tested on: several aphid species; assay: Repellency to aphids (conclusions); assay type: in vivo; conditions: conclusion statement
Description: as §1

[6] = tested on: aphids; assay: Test of aphid settling on exposed barley plants; assay type: in vivo; conditions: barley exposed for 3, 4 and 6 days; FIG. 3
Excerpt: Exposure of barley plants to volatile chemicals was done in perspex ‘two-chamber cages’ (Pettersson et al. 1999) attached to a vacuum tank. Air was taken into the first chamber through a hole in the cage wall, passed into the second chamber and was then drawn out from the top of this cage to a vacuum tank before being vented outside the room. Plants were placed in the second chamber, and chemicals were released from microcapillary tubing which hung in the first chamber. […] Control plants grew in identical cages with empty microcapillary tubes. A 50 ml polystyrene tube was placed over the youngest fully developed leaf. The upper end of the tube was covered with a net and the lower end with a foam plastic plug with a slit for the leaf. To minimise mechanical damage to the test plant, a stick was used to support the tube. Ten mixed-instar apterous aphids were placed in the tube and after 2 hours the number of aphids settled (not walking) on the leaf was recorded. Occasionally aphids were able to escape from the tubes, but the results were expressed as a proportion of the number of aphids originally introduced, in case the propensity of an aphid to escape from the tube was influenced by the experimental treatment of the plant. The number of replicates (tubes) varied between experiments, but there were always equal numbers of control and treatment plants. […]

[7] = orally in rabbits; cited from earlier work
[8] = human adults; cited from earlier work
[9] = tested on: aphids; conditions: applied by spraying in cereal plots, pilot experiment; cited from earlier work
[10] = cited from earlier work

**Q.** What does the source list for `CC1CCC(C(C)C)C(O)C1` (stereo not shown) [menthol, 5-methyl-2-(1-methylethyl)-cyclohexanol]?
**A.** response to chemical odour in the olfactometer [1]: strongly repelled; response to chemical odour in the olfactometer [2]: strongly repelled; response to chemical odour in the olfactometer [3]: strongly repelled; response to odour of plants exposed to the chemical [4]: repelled; repellency for several aphid species [5]: strong repellents

**Q.** What does the source list for `CC12CCC(CC1)C(C)(C)O2` [1,8-cineole, 1,3,3-trimethyl-2-oxabicyclo[2.2.2.]octane]?
**A.** response to chemical odour in the olfactometer [1]: did not respond; response to odour of plants exposed to the chemical [4]: less attractive; aphid settling on plants exposed to the substance [6]: settled significantly less

**Q.** Which “repellency for several aphid species” value [5] does the source give for `COC(=O)c1ccccc1O` [methyl salicylate, 2-hydroxybenzoic acid methyl ester] here?
**A.** The value was “strong repellents”.

**Q.** What about the LD50 [7] of the same molecule?
**A.** Its LD50 is 2800 mg/kg.

**Q.** And the average lethal dose [8]?
**A.** Its average lethal dose is 30 mL.

**Q.** What about the “aphid settling in the field” value [9] of the same molecule?
**A.** Its value is “significantly reduced aphid settling”.

**Q.** And the solubility in water [10]?
**A.** The solubility in water was “slightly soluble”.

From patent publication US20060141077A1, “Pest controlling composition and the use thereof” (ORGANOX AB, priority 2002, published 2006)
